Where a SMILES comes first, the peptide text is derived from it. Bridges are numbered along the chain shown (N, C = ends). [ ]: non-standard residue; d: D form. The star is where a group is joined. Trp(1-CH2CO2Me) = COC(=O)Cn1cc(C[C@H](N)C(=O)O)c2ccccc21; Trp(1-CH2COOH) = N[C@@H](Cc1cn(CC(=O)O)c2ccccc12)C(=O)O; Hyp = O=C(O)[C@@H]1C[C@@H](O)CN1; X20 = Cc1ccc2[nH]c3c(*)ncnc3c2c1; X13 = Clc1ccc2oc3c(*)ncnc3c2c1; X2 = CSc1nc(*)c2sc3ccccc3c2n1; X5 = c1ccc2c(c1)oc1c(*)ncnc12; NMeNle = CCCC[C@H](NC)C(=O)O; X17 = Clc1cc2nc(*)sc2cc1Cl; NMeA = CN[C@@H](C)C(=O)O; Dab = NCC[C@H](N)C(=O)O; X21 = Fc1ccc2nc(*)sc2c1; Dap = NC[C@H](N)C(=O)O; X1 = c1ccc2sc(*)nc2c1; X12 = Brc1cnc(*)nc1; X3 = N#Cc1ccc(*)nc1
Each compound was assayed against T1, PD-1/PD-L1 interaction (PD-1-Ig / PD-L1-His) (Homo sapiens, UniProt Q9NZQ7) (assay: PD-1/PD-L1 Homogenous Time-Resolved Fluorescence (HTRF) binding assay). Settings: PD-L1-His 10 nM final, PD-1-Ig 20 nM final; inhibitors pre-incubated with PD-L1-His for 15 m.
T1 construct: TVMV protease site (linker) (C); made in house; host or cells: HEK293T cells
Text: The ability of the compounds of formula (I) to bind to PD-L1 was investigated using a PD-1/PD-L1 Homogenous Time-Resolved Fluorescence (HTRF) binding assay.
The interaction of PD-1 and PD-L1 can be assessed using soluble, purified preparations of the extracellular domains of the two proteins. The PD-1 and PD-L1 protein extracellular domains were expressed as fusion proteins with detection tags, for PD-1, the tag was the Fc portion of Immunoglobulin (PD-1-Ig) and for PD-L1 it was the 6 histidine motif (PD-L1-His). All binding studies were performed in an HTRF assay buffer consisting of dPBS supplemented with 0.1% […] bovine serum albumin and 0.05% (v/v) Tween-20. For the h/PD-L1-His binding assay, inhibitors were pre-incubated with PD-L1-His (10 nM final) for 15 m in 4 μl of assay buffer, followed by addition of PD-1-Ig (20 nM final) in 1 μl of assay buffer and further incubation for 15 m. HTRF detection was achieved using europium crypate-labeled anti-Ig (1 nM final) and allophycocyanin (APC) labeled anti-His (20 nM final). Antibodies were diluted in HTRF detection buffer and 5 μl was dispensed on top of the binding reaction. The reaction mixture was allowed to equilibrate for 30 minutes and the resulting signal (665 nm/620 nm ratio) was obtained using an EnVision fluorometer. Additional binding assays were established between the human proteins PD-1-Ig/PD-L2-His (20 & 5 nM, respectively) and CD80-His/PD-L1-Ig (100 & 10 nM, respectively).
Recombinant Proteins: Human PD-1 (25-167) with a C-terminal human Fc domain of immunoglobulin G (Ig) epitope tag [hPD-1 (25-167)-3S-IG] and human PD-L1 (18-239) with a C-terminal His epitope tag [hPD-L1(18-239)-TVMV-His] were expressed in HEK293T cells and purified sequentially by ProteinA affinity chromatography and size exclusion chromatography. Human PD-L2-His and CD80-His was obtained through commercial sources.
Table 1 lists the IC50 values for representative examples of this disclosure measured in the PD-1/PD-L1 Homogenous Time-Resolved Fluorescence (HTRF) binding assay.

T1 sequence (Q9NZQ7 18-239): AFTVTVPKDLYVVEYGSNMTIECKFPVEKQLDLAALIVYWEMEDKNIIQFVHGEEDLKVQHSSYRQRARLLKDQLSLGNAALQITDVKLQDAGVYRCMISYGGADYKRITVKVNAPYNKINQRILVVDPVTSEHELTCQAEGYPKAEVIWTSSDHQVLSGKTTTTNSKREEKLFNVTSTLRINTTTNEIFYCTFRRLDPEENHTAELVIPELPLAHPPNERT

Row | IC50 | Compound
1 | 12 nM | CCCC[C@H]1C(=O)N(C)[C@@H](CCCC)C(=O)N[C@@H](CC(C)C)C(=O)N[C@H](C(=O)NCC(N)=O)CSCC(=O)N[C@@H](Cc2ccc(O)cc2)C(=O)N(C)[C@@H](C)C(=O)N[C@@H](CC(N)=O)C(=O)N2CCC[C@H]2C(=O)N[C@@H](CNc2ncnc3c2oc2ccc(Cl)cc23)C(=O)N[C@@H](CC(C)C)C(=O)N2C[C@H](O)C[C@H]2C(=O)N[C@@H](Cc2c[nH]c3ccccc23)C(=O)N[C@@H](CCNc2ncnc3c2oc2ccc(Cl)cc23)C(=O)N[C@@H](Cc2cn(CC(=O)O)c3ccccc23)C(=O)N1C [Compound 21006] ({CH2CO}-Y[NMeA]NP[Dap](X13)L[Hyp]W[Dab](X13)[Trp(1-CH2COOH)][NMeNle][NMeNle]LCG-NH2; thioether N-14)
2 | 4.5 nM | CCCC[C@H]1C(=O)N(C)[C@@H](CCCC)C(=O)N[C@@H](CC(C)C)C(=O)N[C@H](C(=O)NCC(N)=O)CSCC(=O)N[C@@H](Cc2ccc(O)cc2)C(=O)N(C)[C@@H](C)C(=O)N[C@@H](CC(N)=O)C(=O)N2CCC[C@H]2C(=O)N[C@@H](CNc2ccc(C#N)cn2)C(=O)N[C@@H](CC(C)C)C(=O)N2C[C@H](O)C[C@H]2C(=O)N[C@@H](Cc2c[nH]c3ccccc23)C(=O)N[C@@H](CCNc2ccc(C#N)cn2)C(=O)N[C@@H](Cc2cn(CC(=O)O)c3ccccc23)C(=O)N1C [Compound 1002] ({CH2CO}-Y[NMeA]NP[Dap](X3)L[Hyp]W[Dab](X3)[Trp(1-CH2COOH)][NMeNle][NMeNle]LCG-NH2; thioether N-14)
3 | 13 nM | CCCC[C@H]1C(=O)N(C)[C@@H](CCCC)C(=O)N[C@@H](CC(C)C)C(=O)N[C@H](C(=O)NCC(N)=O)CSCC(=O)N[C@@H](Cc2ccc(O)cc2)C(=O)N(C)[C@@H](C)C(=O)N[C@@H](CC(N)=O)C(=O)N2CCC[C@H]2C(=O)N[C@@H](CNc2ncnc3c2[nH]c2ccc(C)cc23)C(=O)N[C@@H](CC(C)C)C(=O)N2C[C@H](O)C[C@H]2C(=O)N[C@@H](Cc2c[nH]c3ccccc23)C(=O)N[C@@H](CCN)C(=O)N[C@@H](Cc2cn(CC(=O)O)c3ccccc23)C(=O)N1C [Compound 21003] ({CH2CO}-Y[NMeA]NP[Dap](X20)L[Hyp]W[Dab][Trp(1-CH2COOH)][NMeNle][NMeNle]LCG-NH2; thioether N-14)
4 | 136 nM | CCCC[C@H]1C(=O)N(C)[C@@H](CCCC)C(=O)N[C@@H](CC(C)C)C(=O)N[C@H](C(=O)NCC(N)=O)CSCC(=O)N[C@@H](Cc2ccc(O)cc2)C(=O)N(C)[C@@H](C)C(=O)N[C@@H](CC(N)=O)C(=O)N2CCC[C@H]2C(=O)N[C@@H](CNc2nc(SC)nc3c2sc2ccccc23)C(=O)N[C@@H](CC(C)C)C(=O)N2C[C@H](O)C[C@H]2C(=O)N[C@@H](Cc2c[nH]c3ccccc23)C(=O)N[C@@H](CCNc2nc(SC)nc3c2sc2ccccc23)C(=O)N[C@@H](Cc2cn(CC(=O)O)c3ccccc23)C(=O)N1C [Compound 21009] ({CH2CO}-Y[NMeA]NP[Dap](X2)L[Hyp]W[Dab](X2)[Trp(1-CH2COOH)][NMeNle][NMeNle]LCG-NH2; thioether N-14)
5 | 4.9 nM | CCCC[C@H]1C(=O)N(C)[C@@H](CCCC)C(=O)N[C@@H](CC(C)C)C(=O)N[C@H](C(=O)NCC(N)=O)CSCC(=O)N[C@@H](Cc2ccc(O)cc2)C(=O)N(C)[C@@H](C)C(=O)N[C@@H](CC(N)=O)C(=O)N2CCC[C@H]2C(=O)N[C@@H](CNc2ncc(Br)cn2)C(=O)N[C@@H](CC(C)C)C(=O)N2C[C@H](O)C[C@H]2C(=O)N[C@@H](Cc2c[nH]c3ccccc23)C(=O)N[C@@H](CCNc2ncc(Br)cn2)C(=O)N[C@@H](Cc2cn(CC(=O)O)c3ccccc23)C(=O)N1C [Compound 1010] ({CH2CO}-Y[NMeA]NP[Dap](X12)L[Hyp]W[Dab](X12)[Trp(1-CH2COOH)][NMeNle][NMeNle]LCG-NH2; thioether N-14)
6 | 89 nM | CCCC[C@H]1C(=O)N(C)[C@@H](CCCC)C(=O)N[C@@H](CC(C)C)C(=O)N[C@H](C(=O)NCC(N)=O)CSCC(=O)N[C@@H](Cc2ccc(O)cc2)C(=O)N(C)[C@@H](C)C(=O)N[C@@H](CC(N)=O)C(=O)N2CCC[C@H]2C(=O)N[C@@H](CNc2nc3cc(Cl)c(Cl)cc3s2)C(=O)N[C@@H](CC(C)C)C(=O)N2C[C@H](O)C[C@H]2C(=O)N[C@@H](Cc2c[nH]c3ccccc23)C(=O)N[C@@H](CCNc2nc3cc(Cl)c(Cl)cc3s2)C(=O)N[C@@H](Cc2cn(CC(=O)O)c3ccccc23)C(=O)N1C [Compound 11005] ({CH2CO}-Y[NMeA]NP[Dap](X17)L[Hyp]W[Dab](X17)[Trp(1-CH2COOH)][NMeNle][NMeNle]LCG-NH2; thioether N-14)
7 | 45 nM | CCCC[C@H]1C(=O)N(C)[C@@H](CCCC)C(=O)N[C@@H](CC(C)C)C(=O)N[C@H](C(=O)NCC(N)=O)CSCC(=O)N[C@@H](Cc2ccc(O)cc2)C(=O)N(C)[C@@H](C)C(=O)N[C@@H](CC(N)=O)C(=O)N2CCC[C@H]2C(=O)N[C@@H](CNc2nc3ccc(F)cc3s2)C(=O)N[C@@H](CC(C)C)C(=O)N2C[C@H](O)C[C@H]2C(=O)N[C@@H](Cc2c[nH]c3ccccc23)C(=O)N[C@@H](CCN)C(=O)N[C@@H](Cc2cn(CC(=O)O)c3ccccc23)C(=O)N1C [Compound 11010] ({CH2CO}-Y[NMeA]NP[Dap](X21)L[Hyp]W[Dab][Trp(1-CH2COOH)][NMeNle][NMeNle]LCG-NH2; thioether N-14)
8 | 138 nM | CCCC[C@H]1C(=O)N(C)[C@@H](CCCC)C(=O)N[C@@H](CC(C)C)C(=O)N[C@H](C(=O)NCC(N)=O)CSCC(=O)N[C@@H](Cc2ccc(O)cc2)C(=O)N(C)[C@@H](C)C(=O)N[C@@H](CC(N)=O)C(=O)N2CCC[C@H]2C(=O)N[C@@H](CNc2nc3ccccc3s2)C(=O)N[C@@H](CC(C)C)C(=O)N2C[C@H](O)C[C@H]2C(=O)N[C@@H](Cc2c[nH]c3ccccc23)C(=O)N[C@@H](CCNc2nc3ccccc3s2)C(=O)N[C@@H](Cc2cn(CC(=O)OC)c3ccccc23)C(=O)N1C [Compound 12001] ({CH2CO}-Y[NMeA]NP[Dap](X1)L[Hyp]W[Dab](X1)[Trp(1-CH2CO2Me)][NMeNle][NMeNle]LCG-NH2; thioether N-14)
9 | 3.9 nM | CCCC[C@H]1C(=O)N(C)[C@@H](CCCC)C(=O)N[C@@H](CC(C)C)C(=O)N[C@H](C(=O)NCC(N)=O)CSCC(=O)N[C@@H](Cc2ccc(O)cc2)C(=O)N(C)[C@@H](C)C(=O)N[C@@H](CC(N)=O)C(=O)N2CCC[C@H]2C(=O)N[C@@H](CNc2ncnc3c2oc2ccccc23)C(=O)N[C@@H](CC(C)C)C(=O)N2C[C@H](O)C[C@H]2C(=O)N[C@@H](Cc2c[nH]c3ccccc23)C(=O)N[C@@H](CCNc2ncnc3c2oc2ccccc23)C(=O)N[C@@H](Cc2cn(CC(=O)O)c3ccccc23)C(=O)N1C [Compound 21010] ({CH2CO}-Y[NMeA]NP[Dap](X5)L[Hyp]W[Dab](X5)[Trp(1-CH2COOH)][NMeNle][NMeNle]LCG-NH2; thioether N-14)

Reference: patent US20230022400A1, “IMMUNOMODULATORS” (Bristol-Myers Squibb Company, priority 2019, published 2023)
